# Data from patent publication US20240252581A1, “COMPOSITIONS AND METHODS FOR TREATING RESPIRATORY DISTRESS” (S.I.S. SHULOV INNOVATIVE SCIENCE LTD., priority 2021, published 2024).
# Square brackets hold non-standard residues; d marks the D form. * marks the point of attachment. pGlu = O=C1CC[C@@H](C(=O)O)N1; Octanoyl = CCCCCCCC(=O)*
# Assay: Oxygen saturation in mouse model of LPS-inflamed lungs (Rodent Pulse Oximeter)
# Format: in vivo, Balb/C female mice
# Protocol: Evaluation of the effect of ZEP3Na administration via inhalation on oxygen saturation in a mouse model of inflamed lungs by the lipopolysaccharides (LPS) was performed. Oxygen saturation testing was performed at several time points on mice that have been anesthetized by isoflurane. A sensor was attached to the hind foot of the mice and the percentage of oxygen in the blood was measured using the Rodent Pulse Oximeter instrument (Kent Scientific).
# Following LPS intratracheal instillation, a marked reduction in blood oxygen saturation levels was detected. ZEP3Na was then administered by inhalation at two doses 6 h and 14 h after LPS administration and the effect of ZEP3Na on blood oxygen saturation was monitored 0, 2, 6, 12, 24 and 48 hours following ZEP3Na administration. Saturation data was analyzed by ANOVA followed by Tukey-Kramer test. Significance level was defined as ∝=0.05.
substance,measurement,setting,value
pGlu-Asn-Trp-Lys(Octanoyl)-OH ([pGlu]NWK(Octanoyl)-OH; SMILES CCCCCCCC(=O)NCCCC[C@H](NC(=O)[C@H](Cc1c[nH]c2ccccc12)NC(=O)[C@H](CC(N)=O)NC(=O)[C@@H]1CCC(=O)N1)C(=O)O) [ZEP3],time after administration over which increase in oxygen saturation was exerted,acute inflamed lung model,at least 48 hours
same,time following treatment at which increase in oxygen saturation is statistically significant,"administration by inhalation, LPS model",12 h
